# In ChEMBL document CHEMBL5154743, “Bicyclic Heterocyclic Replacement of an Aryl Amide Leading to Potent and Kinase-Selective Adaptor Protein 2-Associated Kinase 1 Inhibitors” (J Med Chem, 2022):
# Experiments:
# [1] = target: T1, AP2-associated protein kinase 1 (Homo sapiens, UniProt Q2M2I8)
# [2] = Metabolic stability in rat liver microsomes assessed as parent compound remaining at 0.5 uM incubated for 10 mins in presence of NADPH by LC-MS/MS analysis; format: ADME, Microsome; conditions: read-out: Stability
# [3] = Metabolic stability in human liver microsomes assessed as parent compound remaining at 0.5 uM incubated for 10 mins in presence of NADPH by LC-MS/MS analysis; format: ADME, Microsome; conditions: read-out: Stability
# [4] = target: T1, AP2-associated protein kinase 1; test: Inhibition of full length human AAK1 expressed in HEK293F incubated for 3 hrs by Western blot analysis; format: cell-based
# [5] = Metabolic stability in mouse liver microsomes assessed as parent compound remaining at 0.5 uM incubated for 10 mins in presence of NADPH by LC-MS/MS analysis; format: ADME, Microsome; conditions: read-out: Stability
# [6] = Plasma protein binding in human assessed as unbound fraction at 10 uM incubated for 5 hrs by rapid equlibrium dialysis based LC-MS/MS method
# [7] = Plasma protein binding in rat assessed as unbound fraction at 10 uM incubated for 5 hrs by rapid equlibrium dialysis based LC-MS/MS method
# [8] = Plasma protein binding in mouse assessed as unbound fraction at 10 uM incubated for 5 hrs by rapid equlibrium dialysis based LC-MS/MS method
# [9] = Permeability of the compound at pH 7.4 by PAMPA; format: ADME; conditions: read-out: permeability
# [10] = Permeability across apical to basolateral side in human Caco-2 cells incubated for 2 hrs by LC-MS/MS analysis
# [11] = Permeability across basolateral to apical side in human Caco-2 cells incubated for 2 hrs by LC-MS/MS analysis; format: ADME, cell-based; conditions: Caco-2, read-out: permeability
# T1 sequence (Q2M2I8 whole entry): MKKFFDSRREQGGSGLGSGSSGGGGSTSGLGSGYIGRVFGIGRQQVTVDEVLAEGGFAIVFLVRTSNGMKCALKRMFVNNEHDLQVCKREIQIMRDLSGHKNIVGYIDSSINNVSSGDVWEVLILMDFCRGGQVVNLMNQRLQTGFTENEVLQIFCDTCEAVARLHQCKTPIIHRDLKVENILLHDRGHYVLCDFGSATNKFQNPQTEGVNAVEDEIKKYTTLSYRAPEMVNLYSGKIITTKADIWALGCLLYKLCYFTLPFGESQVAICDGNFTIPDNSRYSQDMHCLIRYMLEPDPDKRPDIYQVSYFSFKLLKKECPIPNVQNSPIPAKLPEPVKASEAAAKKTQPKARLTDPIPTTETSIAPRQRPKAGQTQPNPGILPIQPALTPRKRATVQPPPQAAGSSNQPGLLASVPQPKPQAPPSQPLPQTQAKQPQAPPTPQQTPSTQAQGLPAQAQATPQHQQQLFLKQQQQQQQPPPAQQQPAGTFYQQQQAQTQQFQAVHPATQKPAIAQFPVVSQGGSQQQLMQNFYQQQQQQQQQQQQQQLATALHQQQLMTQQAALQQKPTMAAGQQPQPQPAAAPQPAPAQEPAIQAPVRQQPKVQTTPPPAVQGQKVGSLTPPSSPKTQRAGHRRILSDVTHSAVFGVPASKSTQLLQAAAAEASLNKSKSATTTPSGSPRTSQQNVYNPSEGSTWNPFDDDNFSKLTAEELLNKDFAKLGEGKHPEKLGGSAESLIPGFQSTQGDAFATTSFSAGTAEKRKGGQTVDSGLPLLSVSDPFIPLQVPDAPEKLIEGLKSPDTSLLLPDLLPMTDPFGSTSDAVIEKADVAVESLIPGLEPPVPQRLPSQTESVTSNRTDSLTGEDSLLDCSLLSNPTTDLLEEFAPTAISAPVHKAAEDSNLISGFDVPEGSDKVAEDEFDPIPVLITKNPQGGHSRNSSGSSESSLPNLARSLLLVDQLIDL
IC50 [1],also measured,SMILES
420 nM,–,CCc1nc(C(N)CC(C)C)nc2cc(OC)c(-c3ccncc3)cc12 (stereo not given)
22 nM,–,CC(C)C[C@@H](N)c1cc(C#N)c2cc(-c3cnco3)ccc2n1
67 nM,–,CCc1nc(C(N)CC(C)C)nc2ccc(-c3cnco3)cc12 (stereo not given)
16 nM,–,CC(C)CC(N)c1nc(C#N)c2cc(-c3ccncc3)ccc2n1 (stereo not given)
4.2 nM,"remaining at 10 min, 0.5 µM [2]: 56%; remaining at 10 min, 0.5 µM [3]: 76%; IC50 [4]: 32 nM; remaining at 10 min, 0.5 µM [5]: 71%; fraction unbound at 5 h, 10 µM [6]: 0.014; fraction unbound at 5 h, 10 µM [7]: 0.009; fraction unbound at 5 h, 10 µM [8]: 0.03; Papp [9]: 93 ×10⁻⁶ cm/s; Papp A→B at 2 h [10]: 7.1 ×10⁻⁶ cm/s; Papp B→A at 2 h [11]: 5.7 ×10⁻⁶ cm/s",CC(C)C[C@H](N)c1cc(C#N)c2cc(-c3cnco3)ccc2n1
44 nM,–,CCc1nc(C(N)CC(C)C)nc2ccc(-c3ccncc3)cc12 (stereo not given)
220 nM,–,CCc1nc([C@H](N)CC(C)C)nc2ccc(-c3cnco3)cc12
6.2 nM,–,COc1cc2nc(C(N)CC(C)C)nc(C#N)c2cc1-c1cnco1 (stereo not given)
340 nM,–,CCOc1nc(C(N)CC(C)C)nc2ccc(-c3cnco3)cc12 (stereo not given)
1800 nM,–,CC(C)CC(N)c1nc2ccc(-c3ccncc3)cc2cc1C#N (stereo not given)
